Assay results reported in ChEMBL document CHEMBL2331451, “Discovery of (1R,2R)-N-(4-(6-isopropylpyridin-2-yl)-3-(2-methyl-2H-indazol-5-yl)isothiazol-5-yl)-2-methylcyclopropanecarboxamide, a potent and orally efficacious mGlu5 receptor negative allosteric modulator” (Bioorg Med Chem Lett, 2013).
Active and inactive are the calls of the source. The rule behind the calls is not given here.

Assays:
Homo sapiens = species: Homo sapiens; experiment: Selectivity ratio of IC50 for human recombinant mGlu1 receptor to IC50 for human recombinant mGlu5 receptor
[1] = biological target: Metabotropic glutamate receptor 1 (Homo sapiens, UniProt Q13255); experiment: Negative allosteric modulation of human recombinant mGlu1 receptor expressed in Syrian hamster AV12 cells assessed as receptor-mediated changes in intracellular calcium concentration by FLIPR assay; type: functional, cell-based
[2] = biological target: Metabotropic glutamate receptor 5 (Homo sapiens, UniProt P41594); experiment: Negative allosteric modulation of human recombinant mGlu5 receptor expressed in Syrian hamster AV12 cells assessed as receptor-mediated changes in intracellular calcium concentration by FLIPR assay; type: functional, cell-based
Rattus norvegicus [3] = experiment: Ex vivo receptor occupancy of mGlu5 receptor in po dosed Harlan Sprague-Dawley rat brain; type: functional
[4] = Drug uptake in Harlan Sprague-Dawley rat brain at 10 mg/kg, po after 2 hrs; type: ADME, organism-based; parameters: dose 10 mg/kg, route oral; settings: read-out: Drug uptake
[5] = biological target: T1, 5-hydroxytryptamine receptor 2B (Homo sapiens, UniProt P41595); settings: 1 uM
Description: Inhibition of 5HT2B receptor (unknown origin) at 1 uM

[6] = biological target: Metabotropic glutamate receptor 5 (Rattus norvegicus, UniProt P31424); experiment: Negative allosteric modulation of rat mGlu5 receptor
[7] = AUC (0 to 24 hrs) in Harlan Sprague-Dawley rat at 1.5 mg/kg, po; type: ADME, organism-based; parameters: time < 24 hr, dose 1.5 mg/kg, route oral; settings: plasma
Rattus norvegicus [8] = experiment: Ex vivo receptor occupancy of mGlu5 receptor in Harlan Sprague-Dawley rat brain at 10 mg/kg, po after 1 hr; type: functional
Rattus norvegicus [9] = experiment: Analgesic activity in po dosed fasted Harlan Sprague-Dawley rat assessed as inhibition of late phase of formalin- induced paw-licking pain behavior; type: functional
Rattus norvegicus [10] = experiment: Ex vivo receptor occupancy of mGlu5 receptor in Harlan Sprague-Dawley rat brain at 10 mg/kg, po after 24 hrs; type: functional
[11] = Drug uptake in Harlan Sprague-Dawley rat brain at 10 mg/kg, po after 24 hrs; type: ADME, organism-based; parameters: dose 10 mg/kg, route oral; settings: read-out: Drug uptake
Rattus norvegicus [12] = species: Rattus norvegicus; experiment: Neurotoxicity in Harlan Sprague-Dawley rat assessed as minimal motor impairment up to 4 hrs by rotorod test; type: toxicity, organism-based; settings: in vivo
[13] = Drug uptake in Harlan Sprague-Dawley rat brain at 10 mg/kg, po after 4 hrs; type: ADME, organism-based; parameters: dose 10 mg/kg, route oral; settings: read-out: Drug uptake
Rattus norvegicus [14] = experiment: Ex vivo receptor occupancy of mGlu5 receptor in Harlan Sprague-Dawley rat brain at 10 mg/kg, po after 6 hrs; type: functional
[15] = Drug uptake in Harlan Sprague-Dawley rat brain at 10 mg/kg, po after 0.5 hrs; type: ADME, organism-based; parameters: dose 10 mg/kg, route oral; settings: read-out: Drug uptake
[16] = Clearance in Harlan Sprague-Dawley rat at 1.5 mg/kg, po and 1 mg/kg, iv; type: ADME, organism-based; settings: in vivo
Rattus norvegicus [17] = experiment: Ex vivo receptor occupancy of mGlu1 receptor in Harlan Sprague-Dawley rat brain up to 10 mg/kg, po; type: functional, organism-based; parameters: dose 10 mg/kg
Rattus norvegicus [18] = experiment: Ex vivo receptor occupancy of mGlu5 receptor in Harlan Sprague-Dawley rat brain at 10 mg/kg, po after 4 hrs; type: functional
[19] = Volume of distribution in Harlan Sprague-Dawley rat at 1.5 mg/kg, po and 1 mg/kg, iv; type: ADME, organism-based; settings: in vivo
[20] = Cmax in Harlan Sprague-Dawley rat at 1.5 mg/kg, po; type: ADME, organism-based; parameters: dose 1.5 mg/kg, route oral; settings: in vivo
[21] = Drug uptake in Harlan Sprague-Dawley rat brain at 10 mg/kg, po after 1 hr; type: ADME, organism-based; parameters: dose 10 mg/kg, route oral; settings: read-out: Drug uptake
[22] = Elimination half life in Harlan Sprague-Dawley rat at 1 mg/kg, iv; type: ADME, organism-based; parameters: dose 1 mg/kg, route intravenous; settings: in vivo, read-out: beta t1/2 (converted)
[23] = Bioavailability in Harlan Sprague-Dawley rat at 1.5 mg/kg, po and 1 mg/kg, iv; type: ADME, organism-based; settings: in vivo
[24] = Elimination half life in Harlan Sprague-Dawley rat at 1.5 mg/kg, po; type: ADME, organism-based; parameters: dose 1.5 mg/kg, route oral; settings: in vivo, read-out: beta t1/2 (converted)
[25] = biological target: T1, 5-hydroxytryptamine receptor 2B; experiment: Binding affinity to 5HT2B receptor (unknown origin)
[26] = Tmax in Harlan Sprague-Dawley rat at 1.5 mg/kg, po; type: ADME, organism-based; parameters: dose 1.5 mg/kg, route oral; settings: in vivo
[27] = Drug uptake in Harlan Sprague-Dawley rat brain at 10 mg/kg, po after 6 hrs; type: ADME, organism-based; parameters: dose 10 mg/kg, route oral; settings: read-out: Drug uptake
Rattus norvegicus [28] = experiment: Ex vivo receptor occupancy of mGlu5 receptor in Harlan Sprague-Dawley rat brain at 10 mg/kg, po after 2 hrs; type: functional
Rattus norvegicus [29] = experiment: Ex vivo receptor occupancy of mGlu5 receptor in Harlan Sprague-Dawley rat brain at 10 mg/kg, po after 0.5 hrs; type: functional

Chain of Metabotropic glutamate receptor 5 (Homo sapiens, UniProt P41594) (P41594 whole entry): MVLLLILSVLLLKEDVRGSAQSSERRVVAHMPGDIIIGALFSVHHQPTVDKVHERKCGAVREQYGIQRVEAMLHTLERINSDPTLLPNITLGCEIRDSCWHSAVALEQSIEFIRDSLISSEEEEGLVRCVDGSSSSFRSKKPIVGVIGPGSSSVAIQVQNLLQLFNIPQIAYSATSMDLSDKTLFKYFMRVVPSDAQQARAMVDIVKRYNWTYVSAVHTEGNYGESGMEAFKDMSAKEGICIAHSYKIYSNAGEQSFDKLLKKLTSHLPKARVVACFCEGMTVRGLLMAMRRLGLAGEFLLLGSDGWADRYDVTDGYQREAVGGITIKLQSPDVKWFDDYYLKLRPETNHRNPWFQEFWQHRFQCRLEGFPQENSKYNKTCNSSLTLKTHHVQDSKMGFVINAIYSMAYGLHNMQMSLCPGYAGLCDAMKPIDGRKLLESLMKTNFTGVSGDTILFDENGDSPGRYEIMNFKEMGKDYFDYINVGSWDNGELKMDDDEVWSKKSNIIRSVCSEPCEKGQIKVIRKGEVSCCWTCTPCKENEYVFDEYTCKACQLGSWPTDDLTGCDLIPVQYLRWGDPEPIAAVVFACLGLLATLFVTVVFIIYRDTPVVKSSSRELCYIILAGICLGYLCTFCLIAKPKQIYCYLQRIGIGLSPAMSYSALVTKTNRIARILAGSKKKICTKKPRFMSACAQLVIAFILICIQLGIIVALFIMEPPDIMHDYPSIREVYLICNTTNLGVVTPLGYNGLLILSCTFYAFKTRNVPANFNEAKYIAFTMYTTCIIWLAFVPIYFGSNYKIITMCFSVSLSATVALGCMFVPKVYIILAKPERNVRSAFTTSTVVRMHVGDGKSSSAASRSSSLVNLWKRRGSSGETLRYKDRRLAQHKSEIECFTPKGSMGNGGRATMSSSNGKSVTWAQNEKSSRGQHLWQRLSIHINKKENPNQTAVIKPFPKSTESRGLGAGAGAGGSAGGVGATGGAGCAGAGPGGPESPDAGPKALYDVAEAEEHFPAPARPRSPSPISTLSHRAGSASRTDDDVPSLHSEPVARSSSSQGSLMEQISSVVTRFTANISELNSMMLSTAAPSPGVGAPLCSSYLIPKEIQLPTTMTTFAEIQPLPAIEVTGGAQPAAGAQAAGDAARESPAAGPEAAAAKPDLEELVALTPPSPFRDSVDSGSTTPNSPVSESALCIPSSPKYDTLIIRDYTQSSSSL
Chain of Metabotropic glutamate receptor 1 (Q13255 whole entry): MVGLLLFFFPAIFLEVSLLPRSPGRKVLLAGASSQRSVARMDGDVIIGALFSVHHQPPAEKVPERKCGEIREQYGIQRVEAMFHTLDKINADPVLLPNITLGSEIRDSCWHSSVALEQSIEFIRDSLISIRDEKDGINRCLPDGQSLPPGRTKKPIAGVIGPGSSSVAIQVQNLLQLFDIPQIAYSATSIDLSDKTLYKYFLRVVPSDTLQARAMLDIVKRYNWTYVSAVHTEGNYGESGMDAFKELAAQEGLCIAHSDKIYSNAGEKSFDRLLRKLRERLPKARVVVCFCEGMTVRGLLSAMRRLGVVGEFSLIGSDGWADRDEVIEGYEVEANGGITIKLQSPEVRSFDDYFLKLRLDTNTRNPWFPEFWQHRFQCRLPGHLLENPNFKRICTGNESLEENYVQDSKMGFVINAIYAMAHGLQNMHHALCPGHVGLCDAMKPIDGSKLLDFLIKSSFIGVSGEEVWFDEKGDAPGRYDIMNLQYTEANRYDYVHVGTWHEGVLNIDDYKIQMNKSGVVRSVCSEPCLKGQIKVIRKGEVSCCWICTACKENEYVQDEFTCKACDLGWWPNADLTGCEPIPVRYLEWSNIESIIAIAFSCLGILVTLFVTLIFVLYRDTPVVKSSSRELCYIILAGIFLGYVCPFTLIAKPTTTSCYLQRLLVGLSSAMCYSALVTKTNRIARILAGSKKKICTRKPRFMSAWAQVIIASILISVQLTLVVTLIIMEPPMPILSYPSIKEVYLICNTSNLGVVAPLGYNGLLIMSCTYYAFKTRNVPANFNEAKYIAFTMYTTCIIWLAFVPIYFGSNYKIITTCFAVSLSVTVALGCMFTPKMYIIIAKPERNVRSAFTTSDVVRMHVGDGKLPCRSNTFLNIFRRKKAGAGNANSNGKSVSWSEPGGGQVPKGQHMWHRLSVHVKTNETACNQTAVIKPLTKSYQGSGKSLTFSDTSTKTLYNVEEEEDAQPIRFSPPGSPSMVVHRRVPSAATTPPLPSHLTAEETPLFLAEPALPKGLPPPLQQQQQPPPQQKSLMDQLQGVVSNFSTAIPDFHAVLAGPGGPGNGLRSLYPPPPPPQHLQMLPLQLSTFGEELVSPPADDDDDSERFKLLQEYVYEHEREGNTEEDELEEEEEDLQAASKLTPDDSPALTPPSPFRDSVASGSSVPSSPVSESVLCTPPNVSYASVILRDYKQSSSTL
T1 sequence (P41595 whole entry): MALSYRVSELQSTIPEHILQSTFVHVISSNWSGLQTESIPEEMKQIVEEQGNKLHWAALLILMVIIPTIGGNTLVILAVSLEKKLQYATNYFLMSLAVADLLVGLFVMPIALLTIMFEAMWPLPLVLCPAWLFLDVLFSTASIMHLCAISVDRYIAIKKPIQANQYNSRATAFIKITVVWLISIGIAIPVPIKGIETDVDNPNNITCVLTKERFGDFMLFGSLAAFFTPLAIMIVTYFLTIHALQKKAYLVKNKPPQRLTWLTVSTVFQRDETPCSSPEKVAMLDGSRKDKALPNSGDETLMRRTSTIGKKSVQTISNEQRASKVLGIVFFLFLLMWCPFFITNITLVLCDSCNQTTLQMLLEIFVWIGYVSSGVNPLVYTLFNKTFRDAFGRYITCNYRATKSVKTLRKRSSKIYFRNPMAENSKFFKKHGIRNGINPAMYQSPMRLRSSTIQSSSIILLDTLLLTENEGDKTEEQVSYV
Chain of Metabotropic glutamate receptor 5 (Rattus norvegicus, UniProt P31424) (P31424 whole entry): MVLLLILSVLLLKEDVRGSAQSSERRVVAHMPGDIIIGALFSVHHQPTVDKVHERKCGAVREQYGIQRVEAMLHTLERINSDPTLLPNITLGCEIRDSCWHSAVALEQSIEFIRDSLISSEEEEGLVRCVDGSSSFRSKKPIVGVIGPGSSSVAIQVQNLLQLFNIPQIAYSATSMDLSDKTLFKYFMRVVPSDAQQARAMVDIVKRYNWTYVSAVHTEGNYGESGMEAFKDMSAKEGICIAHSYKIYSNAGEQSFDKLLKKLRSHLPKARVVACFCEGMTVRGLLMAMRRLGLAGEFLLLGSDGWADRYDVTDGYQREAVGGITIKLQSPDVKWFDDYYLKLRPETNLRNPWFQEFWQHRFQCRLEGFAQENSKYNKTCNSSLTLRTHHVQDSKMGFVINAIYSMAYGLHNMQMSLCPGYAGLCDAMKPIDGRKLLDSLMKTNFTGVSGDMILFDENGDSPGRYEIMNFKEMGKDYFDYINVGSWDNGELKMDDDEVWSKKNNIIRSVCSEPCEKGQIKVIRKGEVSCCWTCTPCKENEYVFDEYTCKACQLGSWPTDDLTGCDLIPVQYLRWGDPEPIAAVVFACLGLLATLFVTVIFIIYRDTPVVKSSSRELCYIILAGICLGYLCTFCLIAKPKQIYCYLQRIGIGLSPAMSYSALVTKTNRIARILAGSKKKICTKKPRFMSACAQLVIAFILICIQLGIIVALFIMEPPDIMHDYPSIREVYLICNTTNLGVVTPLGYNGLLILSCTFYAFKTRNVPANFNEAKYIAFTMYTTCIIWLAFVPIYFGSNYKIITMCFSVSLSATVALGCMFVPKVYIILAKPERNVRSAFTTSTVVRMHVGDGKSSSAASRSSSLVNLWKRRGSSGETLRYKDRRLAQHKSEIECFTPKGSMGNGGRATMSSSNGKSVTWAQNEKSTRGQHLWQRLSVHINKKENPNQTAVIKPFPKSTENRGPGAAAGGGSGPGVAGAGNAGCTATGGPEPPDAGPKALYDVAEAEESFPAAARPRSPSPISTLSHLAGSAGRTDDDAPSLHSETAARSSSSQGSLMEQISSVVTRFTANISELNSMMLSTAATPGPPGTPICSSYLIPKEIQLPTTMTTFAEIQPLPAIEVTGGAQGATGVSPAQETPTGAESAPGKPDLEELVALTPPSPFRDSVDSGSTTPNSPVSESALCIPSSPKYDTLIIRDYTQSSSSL

Work on COc1ccc(-c2nsc(NC(=O)[C@@H]3C[C@H]3C)c2C)cc1 yielded a Ratio IC50 (Homo sapiens) of over 20.
With CC[C@@H]1C[C@H]1C(=O)Nc1snc(-c2ccc3nn(C)cc3c2)c1-c1cccc(N(C)C)n1 the IC50 [1] was over 12500 nM, the IC50 [2] was 35 nM and the Ratio IC50 (Homo sapiens) was over 357.
In the case of CC(C)c1cccc(-c2c(-c3ccc4nn(C)cc4c3)nsc2NC(=O)[C@@H]2C[C@H]2C)n1.Cl, the Activity (Rattus norvegicus [3]) is reported as “Dose-dependent effect”, the ED50 (Rattus norvegicus [3]) is reported as 2.1 mg/kg and the concentration at 2 h [4] is reported as 2850 nM. The inhibition [5] was 56%, the IC50 [6] was 167 nM and the AUC(0-t) at 24 h [7] was 1570 ng·h/mL. For the same molecule, the Activity (Rattus norvegicus [8]) was 57.8%, the ED50 (Rattus norvegicus [9]) was 25.5 mg/kg and the inhibition (Rattus norvegicus [9]) was “Dose-dependent effect”. For the same molecule, the Activity (Rattus norvegicus [10]) was 58.9%, the concentration at 24 h [11] was 2340 nM and the IC50 [1] was 644 nM. For the same molecule, the Activity (Rattus norvegicus [12]) was “Non-toxic”, the concentration at 4 h [13] was 2590 nM and the Activity (Rattus norvegicus [14]) was 62.5%. The concentration at 0.5 h [15] was 1240 nM, the clearance [16] was 8.4 mL/min/kg and the Activity (Rattus norvegicus [17]) was “inactive”. For the same molecule, the Activity (Rattus norvegicus [18]) was 67.7%, the IC50 [2] was 19 nM and the Ratio IC50 (Homo sapiens) was 34. The Vd [19] was 2.7 L/kg, the Cmax [20] was 255 ng/mL and the concentration at 1 h [21] was 2230 nM. It also gave a half-life [22] of 294 min, a bioavailability [23] of 56.5% and a half-life [24] of 276 min. The Ki [25] was 3.16 µM, the Tmax [26] was 2 h and the concentration at 6 h [27] was 2980 nM. For the same molecule, the Activity (Rattus norvegicus [28]) was 74.3% and the Activity (Rattus norvegicus [29]) was 37.8%.
Molecule CCc1cccc(-c2c(-c3ccc4nn(C)cc4c3)nsc2NC(=O)[C@@H]2C[C@H]2C)n1 has an IC50 [1] of 279 nM, an IC50 [2] of 10 nM and a Ratio IC50 (Homo sapiens) of 28.
Molecule Cc1cccc(-c2c(-c3ccc4nn(C)cc4c3)nsc2NC(=O)[C@@H]2C[C@H]2C)n1 has an IC50 [1] of 2210 nM, an IC50 [2] of 45 nM and a Ratio IC50 (Homo sapiens) of 49.
For C[C@@H]1C[C@H]1C(=O)Nc1snc(-c2ccc3nn(C)cc3c2)c1-c1ccccn1, the IC50 [1] was 238 nM, the IC50 [2] was 29 nM and the Ratio IC50 (Homo sapiens) was 8.
In the case of COc1cccc(-c2c(-c3ccc4nn(C)cc4c3)nsc2NC(=O)[C@@H]2C[C@H]2C)n1, the IC50 [1] is reported as 190 nM, the IC50 [2] is reported as 36 nM and the Ratio IC50 (Homo sapiens) is reported as 5.
With C[C@@H]1C[C@H]1C(=O)Nc1snc(-c2ccc3nn(C)cc3c2)c1-c1cccc(N(C)C)n1 the IC50 [1] was 9540 nM, the IC50 [2] was 20 nM and the Ratio IC50 (Homo sapiens) was 477.
For C[C@@H]1C[C@H]1C(=O)Nc1snc(-c2ccc3nn(C)cc3c2)c1-c1cccc(CF)n1, the IC50 [1] was 1300 nM, the IC50 [2] was 50 nM and the Ratio IC50 (Homo sapiens) was 26.
